How the values were obtained:
human kidney organoids [1] = experiment: cisplatin injury of human kidney organoids: immunostaining, organoid size; format: cell-based; conditions: intermittent cisplatin, 5 treatments; for proximal tubule cells: confocal microscopy
Protocol: FIG. 7. SK-124 preserves human kidney organoid integrity in cisplatin injury model. Human kidney organoids derived from H9 embryonic stem cells were treated with intermittent cisplatin (5 separate treatments) based on published protocols along with the indicated agent. Organoids were cryo-sectioned and immuno-stained with the indicated markers. The top panels show low power images and the bottom panels focus on regions of proximal tubule cells. The graph measures the mean diameter of organoids in the control (no cisplatin), cisplatin+DMSO, and cisplatin+SK-124 treatment groups.
BJFF human induced pluripotent stem cells (hPSCs) were maintained on Geltrexcoated (Thermo Fisher Scientific) plates using StemFit Basic04 Complete (Ajinomoto Co. Inc.) as previously reported(25). The cells were passaged weekly using Accutase (STEMCELL Technologies) for dissociation and Y27632 (Tocris) for adhesion. Directed differentiation of hPSCs into kidney organoids has been published elsewhere (29). Briefly, hPSCs were differentiated into metanephric mesenchyme cells on day 8 by a three-step directed differentiation protocol. Metanephric mesenchyme was transferred into suspension culture in 96-well ultralow adhesion plates (Coming) and further differentiated into kidney organoids, as previously reported(25). Quality control measures of SIX2 immunostaining on day 8 of differentiation and CDH1, LTL, PODXL, CD146, MEIS1/2/3, and SYTOX-blue staining on day 21 were performed on all batches of kidney organoids to limit batch-to-batch heterogeneity. Kidney organoids were maintained in 200 μl of basal media consisting of Advanced RPMI (Thermo Fisher Scientific) and GlutaMAX (Thermo Fisher Scientific) in 96-well plates, as previously reported. Media changes were conducted three times weekly with removal of 90 [l and addition of 100 μl of fresh basal media.
For cisplatin induced injury, day 49 organoids were treated with 5 μM cisplatin in basal media after full media change. After 24 hours, full media exchanges were performed. This 24-hour treatment was performed twice a week, on day 52-53, day 56-57, day 59-60, and day 63-64 as well, for a total of five cisplatin treatments. Samples were obtained for RT-qPCR and immunostaining immediately following each 24-hour treatment with cisplatin, and from corresponding controls.
Following the treatment, the organoids were collected and immediately fixed in 4% PFA in PBS for 1 hour at room temperature, submerged in 30% sucrose overnight at 4° C., then embedded in O.C.T. Compound (4585. Fisher HealthCare). Subsequently, […] frozen sections were prepared via cryo-sectioning by a cryostat. After 1 hr blocking at room temperature, the sections were treated overnight at 4° C. with primary antibodies in antibody dilution buffer (ADB) with biotinylated LTL (1:200, B-1325, Vector), rat anti-CDH1 (1:500, ab11512, Abcam), goat anti-PODXL (1:500, AF1658, R&D Systems), as well as the antibody of interest, either mouse anti-p21 (1:200, NBP2-43697, Novus Biologicals), or rabbit anti-γH2AX (1:100, 2577, Cell Signaling) antibodies. For the optimum labeling of LTL by biotin/streptavidin interaction, the Streptavidin/Biotin Blocking Kit (SP-2002, Vector Laboratories) was applied according to the manufacturer's instructions. After washing, the samples were stained for 1 hour at RT with the nuclear dye-SYTOX Blue (1:500. S 11348, Invitrogen) and the corresponding secondary antibodies in ADB such as streptavidin-AF750 (1:500, S21384, Invitrogen), donkey anti-rat IgG-AF594 (1:500, A21209, Invitrogen), donkey anti-goat IgG-AF555 (1:500, A21432, Invitrogen), and donkey anti-rabbit IgG-AF488 (1:500, A21206, Invitrogen) for γH2AX or donkey anti-mouse IgG-AF488 (1:500, A21202, Invitrogen) for p21 antibodies as well as mouse anti-Meisl/⅔ (1:200, sc-101850, SantaCruz) conjugated antibody, and slides were mounted with Vectashield antifade mounting medium (H1000, Vector Laboratories). […]

human kidney organoids [2] = experiment: RNA-seq of cisplatin-injured human kidney organoids; format: cell-based; conditions: for injury markers (Col8al, Fibronectin-1, Serpinel) / markers of intact proximal integrity (Lrp2 and Hnf4a): RNA-seq, cisplatin vs vehicle, or SK-124 vs DMSO within cisplatin-treated organoids
Protocol: FIGS. 13A-13E. Transcriptomic effects of SK-124 in cisplatin-induced human kidney organoid model. RNA-seq was performed on kidney organoid RNA samples (n=4/group) from FIG. 8. Volcano plot show gene regulated (>2-fold change, p(adj)<0.05) by cisplatin (versus vehicle, A) or within cisplatin-treated organoids by SK-124 (versus DMSO control, B). In Volcano plot, representative fibrosis/injury markers (Col8a1, Fni, Serpinel) and proximal tubule integrity (Lrp2 and Hnf4a) are shown. Scatterplot (C) and heatmap (D) showing integration of individual RNA-seq comparisons.
Isolated RNA samples from the mouse adenine diet study and human kidney organoid experiment were submitted to Novogene and bulk-RNA sequencing on NovaSeq X Plus Ilumina Novoseq Platform. Sequencing reads were mapped to the mouse reference genome (mm10/GRCm38) or human reference genome (GRCh38/hg38) using Salmon and differential gene expression analysis was performed using DESeq2.

Row | Compound | cisplatin-induced organoid atrophy (human kidney organoids [1]) | organoid cellularity and size in response to cisplatin injury (human kidney organoids [1]) | proximal tubule cells (human kidney organoids [1]) | injury markers (Col8al, Fibronectin-1, Serpinel) (human kidney organoids [2]) | markers of intact proximal integrity (Lrp2 and Hnf4a) (human kidney organoids [2]) | genes regulated in cisplatin (versus control) (human kidney organoids [2]; scatterplot and heatmap, SK-124 vs DMSO in the setting of injury)
1 | CCc1nnc(-c2c(OC)cc(-c3cnc4cc(-c5cnn(C)c5)ccn34)cc2OC)o1 [SK-124, 2-[2,6-Dimethoxy-4-[7-(1-methylpyrazol-4-yl)imidazo[1,2-a]pyridin-3-yl]phenyl]-5-ethyl-1,3,4-oxadiazole] | reduced cisplatin-induced organoid atrophy | preserves organoid cellularity and size | preserved proximal tubule cells | reduced | restored | conversely regulated
2 | N.N.[Cl][Pt][Cl] [cisplatin, reference compound] | – | – | proximal tubular loss | induced | reduced | –

Reference: US20260306463A1, “SIK INHIBITORS TO TREAT CHRONIC KIDNEY DISEASE” (The General Hospital Corporation, priority 2023, published 2026)
